{
  "source": "patent US20220112149A1",
  "about": "“DRUG DESIGN METHOD ASSOCIATED WITH NATURAL PRODUCTS, PENTACYCLIC TRITERPENOID COMPOUND, PREPARATION METHOD AND APPLICATIONS THEREOF” (Huazhong Agricultural University, priority 2020, published 2022)",
  "key": {"[1]": {"settings": "in vivo; cited from earlier work"}, "mice": {"test_system": "mice", "settings": "cited from earlier work"}, "[2]": {"test_system": "NF-κB signaling in HEK293 cells", "experiment": "NF-κB luciferase reporter gene system", "type": "cell-based", "settings": "Homo sapiens, HEK293, read-out: inhibition of the fluorescence signal (NF-κB luciferase reporter)", "method": "FIGS. 10A-10C show the inhibition verification effect chart of GA-02 in Example 5, where FIG. 10A: GA-02 inhibited LPS-induced ICAM-1 expression activity. The inflammatory pathway of HMEC-1 cell was activated by 1 μg/mL LPS, to determine the effect of Celastrol and GA-02 on the expression of ICAM-1 induced by LPS. FIG. 10B: The effect of GA-02 on NF-κB signaling. The NF-κB luciferase reporter plasmid was used to transfect HEK293 cells, and the effects of Celastrol and GA-02 on the NF-κB activity induced by TNF-α were determined; FIG. 10C: qRT-PCR was used to detect mRNA relative expressions of IL-1β, TNF-α, IL-6 and MCP-1.\nICAM-1 is a downstream effector molecule regulated by NF-κB signaling pathway, and NF-κB plays an important role in regulating the expression of ICAM-1 gene. Celastrol can inhibit the activation of the LPS-induced IKK/NF-κB signaling pathway. In order to validate that GA-02 functions through the IKK/NF-κB signaling pathway, we constructed an NF-κB luciferase reporter gene system to validate the inhibitory activity of Celastrol and GA-02 on the luciferase reporter gene. […] In addition, both Celastrol and GA-02 could down-regulate the mRNA transcription levels of inflammatory factors IL-1β, TNF-α, IL-6 and MCP-1 activated by LPS."}, "[3]": {"test_system": "ICAM-1 expression in HMEC-1 cells", "experiment": "LPS-induced ICAM-1 expression in HMEC-1 cells, flow cytometry", "type": "cell-based, human", "method": "(3) Screening candidate molecules with the strongest ICAM-1 inhibitory activity by simulating the physiological model of inflammation that human microvascular endothelial cells (HMEC-1) expressing cell adhesion molecules (ICAM-1) mediate lymphocytes to penetrate blood vessels to infiltrate the damaged tissues. The specific steps are as follows:\n(§1) 1) Culture of HMEC-1 cells: HMEC-1 cells are cultured in MCDB131 medium (U.S. Sigma) that contain 10% fetal bovine serum (FBS, Zhejiang Tianhang Biotechnology Co., Ltd.), double antibody (100 U/mL penicillin and 100 μg/mL streptomycin), 1 μg/mL hydrocortisone (Sangon Biotech (Shanghai) Co., Ltd.) and 10 ng/mL human recombinant growth factor (hEGF, Sangon Biotech (Shanghai) Co., Ltd.) at 37° C., 5% CO2, and 100% RH.\n2) HMEC-1 cells are inoculated into a 24-well plate, and cultured in a cell incubator at 37° C., 5% CO2, and 100% RH. When the cells grow to 80% abundance, different concentrations of drugs are added for 3 h (1 μM Celastrol as a positive control drug). At the end of treatment, 1 μg/mL LPS is added to activate the NF-κB signaling pathway for 12 hours. After activation, the supernatant medium is discarded, and washed three times with PBS, and 100 μL of 0.25% pancreatin (containing 0.5 mM EDTA) is added to digest in a 37° C. incubator for 3 min. When most of cells are shed, 150 μL of MCDB131 complete medium is added to terminate the digestion, shaken for 3 min, then cells are transferred to a V-shaped 96-well plate (Corning), centrifuged at 4° C., 3000 rpm for 3 min to precipitate cells. Then the supernatant medium is discarded, 100 μL of pH=7.4 buffer A (PBS+0.5% BSA+1 mM MgCl2) is added to each well, to wash once, centrifuged at 4° C., 3000 rpm for 3 min, and the buffer A is aspirated. To each well, 100 μL of PBS solution containing 5% bovine serum albumin is added, and shaken and blocked at 120 rpm for 30 min at room temperature; after blocking, centrifuged at 4° C. and 2000 rpm for 3 min, and the supernatant is discarded, 20 μl of buffer A containing 5 μg/mL of primary antibody anti-ICAM-1 antibody LB-2, shaken and incubated at room temperature at 120 rpm for 1 h, using the buffer A without adding anti-ICAM-1 antibody LB-2 as the negative control. By detecting anti-ICAM-1 fluorescence value by flow cytometry, the expression of ICAM-1 protein in HMEC-1 cells is detected indirectly. Three duplicate wells are established for each concentration. PBS is set as a blank control, 1 uM of Celastrol is set as a positive control, to analyze the inhibitory effect of different concentrations of drugs on the expression level of ICAM-1.\nas §1, with “U/ml” for “U/mL”, “μg/ml” for “μg/mL”, “Biotech)” for “Biotech (Shanghai) Co., Ltd.)”, “ng/ml” for “ng/mL”\nHMEC-1 cells are inoculated into a 24-well plate, and cultured in a cell incubator at 37° C., 5% CO2, and 100% RH. When the cells grow to 80% abundance, different concentrations of drugs are added for 3 h (1 μM Celastrol as a positive control drug). At the end of treatment, 1 μg/mL LPS is added to activate the NF-κB signaling pathway for 12 hours. After activation, the supernatant medium is discarded, and washed three times with PBS, and 100 μL of 0.25% pancreatin (containing 0.5 mM EDTA) is added to digest in a 37° C. incubator for 3 min. When most of cells are shed, 150 μL of MCDB131 complete medium is added to terminate the digestion, shaken for 3 min, then cells are transferred to a V-shaped 96-well plate (Corning), centrifuged at 4° C., 3000 rpm for 3 min to precipitate cells. Then the supernatant medium is discarded, 100 μL of pH=7.4 buffer A (PBS+0.5% BSA+1 mM MgCl2) is added to each well, to wash once, centrifuged at 4° C., 3000 rpm for 3 min, and the buffer A is aspirated. […]"}, "normal rats": {"test_system": "normal rats", "settings": "cited from earlier work"}, "[4]": {"test_system": "mice with hereditary diabetes", "settings": "cited from earlier work"}, "lean mice": {"test_system": "lean mice", "settings": "mouse, in vivo, ip", "quoted_text": "Six-week-old SPF-grade C57BL/6 mice (purchased from Hubei Provincial Center for Disease Control and Prevention) are fed in SPF animal house at a room temperature of 22° C., 4 mice per cage. Animals are fed with common diets (purchased) for 2 consecutive weeks. Mice are free to take food and the padding is changed every two days, and the body weights and blood glucose are monitored every week. When the body weight is greater than 22 g, the administration is started. The drug is dissolved in DMSO solvent and administered by intraperitoneal injection. The injection volume is 25 μL per day. In addition, a vehicle and positive drug control are established. The food intake and body weight changes of mice in each group are measured every day. On Days 1 and 21, the blood routine and blood biochemical parameters are monitored. At the same time, the glucose tolerance test (GTT) and insulin tolerance test (ITT) are carried out."}, "mildly obese mice": {"test_system": "mildly obese mice", "experiment": "GA-03 in mildly obese mouse model, intraperitoneal", "type": "in vivo, C57BL/6 mice", "settings": "intraperitoneal injection", "method": "Animals are fed with common diets (purchased) for 14 consecutive weeks. […] When the body weight is greater than 30 g, the administration is started. […] The injection volume is 25 μL per day."}, "[5]": {"test_system": "high-fat-induced obese mice", "experiment": "GA-03 in high-fat-induced obese mouse model, intraperitoneal", "type": "in vivo, C57BL/6 mice", "method": "Animals are fed with 60% calorie high-fat diets (purchased from Bio-medicine) for 14 consecutive weeks. […] When the blood glucose is greater than 11 mmol/L and the body weight is greater than 42 g, the administration is started. […] The injection volume is […]. In addition, a vehicle (25 μL DMSO) is established. […] Mice in the blank group and GA-02 treatment group underwent pathological anatomy, to observe the changes in organs before and after administration. Samples are taken to prepare pathological sections.\nThe model is constructed by feeding high-fat diets to C57BL/6 male mice for 14 weeks, as shown in FIGS. 22A-22D, obese model mice with a body weight greater than 42 g and blood glucose level higher than 11 mmol/L. Model mice are grouped by blood glucose and body weight. […]"}, "[6]": {"settings": "high-dose (8 mg/kg) i.p., second day"}, "[7]": {"settings": "high-dose (8 mg/kg) i.p., third day"}, "[8]": {"settings": "low-, medium- and high-dose (2, 4, 8 mg/kg) i.p."}},
  "data": [
    {"compound": "CC1=C(O)C(=O)C=C2C1=CC=C1[C@@]2(C)CC[C@@]2(C)[C@@H]3C[C@](C)(C(=O)O)CC[C@]3(C)CC[C@]12C", "note": "[Celastrol]", "values": [
      {"measurement": "bioavailability", "setting": "[1]", "value": 17.06, "unit": "%"},
      {"measurement": "toxicity to the brains, hearts and livers", "setting": "mice; dose of 1 mg/kg", "value": "serious toxicity"},
      {"measurement": "lethality rate", "setting": "mice; dose of 4 mg/kg", "value": 40, "unit": "%"},
      {"measurement": "inhibition at 1 µM", "setting": "[2]", "value": 70, "unit": "%"}
    ]},
    {"compound": "CC1(C)[C@@H](O)CC[C@]2(C)[C@H]3C(=O)C=C4[C@@H]5C[C@@](C)(C(=O)O)CC[C@]5(C)CC[C@@]4(C)[C@]3(C)CC[C@@H]12", "note": "[18-β-glycyrrhetinic acid, reference compound]", "values": [
      {"measurement": "ICAM-1 inhibitory activity among the candidate triterpene natural products", "setting": "[3]; HMEC-1, 1 μg/mL LPS, FIG. 3", "value": "best ICAM-1 inhibitory activity"}
    ]},
    {"compound": "C[C@H]1[C@H](C)CC[C@]2(C(=O)O)CC[C@]3(C)C(=CC[C@@H]4[C@@]5(C)C[C@@H](O)[C@H](O)C(C)(C)[C@@H]5CC[C@]43C)[C@H]12", "note": "[corosolic acid]", "values": [
      {"measurement": "blood glucose lowering", "setting": "normal rats", "value": "significant effect of lowering blood glucose"},
      {"measurement": "blood glucose lowering", "setting": "[4]", "value": "significant effect of lowering blood glucose"}
    ]},
    {"compound": "11-dicarbonyl-12-ene-2α,3β-dihydroxy-oleanane [GA-03]", "values": [
      {"measurement": "effect on the food intake and body weight", "setting": "lean mice", "value": "no effect"},
      {"measurement": "effect on appetite suppression and weight reduction", "setting": "mildly obese mice", "value": "obvious effect"},
      {"measurement": "anti-inflammatory activity compared with reference compounds", "setting": "[3]", "value": "basically equivalent to that of GA-02 and superior to 18β-glycyrrhetinic acid"},
      {"measurement": "body weight reduced by", "setting": "[5]; high dose 8 mg/kg i.p., three weeks", "value": "33.80±2.95", "unit": "%"},
      {"measurement": "body weight after three weeks of administration", "setting": "[5]; high dose 8 mg/kg i.p., from 47.49±0.97 g", "value": "31.45 ± 1.81", "unit": "g"},
      {"measurement": "liver function indexes AST and ALT vs vehicle control group", "setting": "[5]; high-dose (8 mg/kg) i.p.", "value": "significantly lower"},
      {"measurement": "average daily food intake", "setting": "[5]; high-dose (8 mg/kg) i.p., first day of administration, day 0: 3.14±0.40 g", "value": "0.65 ± 0.02", "unit": "g"},
      {"measurement": "body weight", "setting": "[5]; high-dose (8 mg/kg) i.p., first day, from 47.49±0.97 g", "value": "46.18 ± 0.95", "unit": "g"},
      {"measurement": "average daily food intake", "setting": "[5]; [6]", "value": "0.57 ± 0.01", "unit": "g"},
      {"measurement": "body weight", "setting": "[5]; [6]", "value": "44.74 ± 0.76", "unit": "g"},
      {"measurement": "average daily food intake", "setting": "[5]; [7]", "value": "0.66 ± 0.06", "unit": "g"},
      {"measurement": "body weight", "setting": "[5]; [7]", "value": "43.13 ± 0.65", "unit": "g"},
      {"measurement": "lipid droplets in the liver (oil red O and H&E staining)", "setting": "[5]; high-dose (8 mg/kg) i.p., three weeks", "value": "completely disappeared"},
      {"measurement": "effect on appetite suppression and weight reduction", "setting": "[5]; intraperitoneal injection, obese mice", "value": "strong effect"},
      {"measurement": "body weight reduced by", "setting": "[5]; low dose 2 mg/kg i.p., three weeks", "value": "20.40±1.89", "unit": "%"},
      {"measurement": "body weight after three weeks of administration", "setting": "[5]; low dose 2 mg/kg i.p., from 47.11±1.32 g", "value": "37.49 ± 1.28", "unit": "g"},
      {"measurement": "fasting blood glucose levels", "setting": "[5]; [8]", "value": "reduce to a normal level"},
      {"measurement": "weights of liver and epididymal fat compared to the vehicle control group", "setting": "[5]; [8]", "value": "decrease in a dose-dependent manner"},
      {"measurement": "blood glucose tolerance (GTT) and insulin tolerance (ITT)", "setting": "[5]; low-, medium- and high-dose groups, i.p.", "value": "significantly improved"},
      {"measurement": "body weight reduced by", "setting": "[5]; medium dose 4 mg/kg i.p., three weeks", "value": "27.63±3.39", "unit": "%"},
      {"measurement": "body weight after three weeks of administration", "setting": "[5]; medium dose 4 mg/kg i.p., from 46.94±1.41 g", "value": "33.99 ± 2.30", "unit": "g"}
    ]}
  ]
}
